Measurements reported in BindingDB's records for doi:10.1021/jm501395b (University of Strasburg, 2015).

Key:
[1] = target: T1, Oxytocin receptor (Homo sapiens, UniProt P30559); assay: Binding affinity to SNAP-tagged oxytocin receptor (unknown origin) expressed in HEK293 cells assessed as dissociation constant after 5 to 120 mins by TR-FRET assay
T1 sequence (P30559 whole entry): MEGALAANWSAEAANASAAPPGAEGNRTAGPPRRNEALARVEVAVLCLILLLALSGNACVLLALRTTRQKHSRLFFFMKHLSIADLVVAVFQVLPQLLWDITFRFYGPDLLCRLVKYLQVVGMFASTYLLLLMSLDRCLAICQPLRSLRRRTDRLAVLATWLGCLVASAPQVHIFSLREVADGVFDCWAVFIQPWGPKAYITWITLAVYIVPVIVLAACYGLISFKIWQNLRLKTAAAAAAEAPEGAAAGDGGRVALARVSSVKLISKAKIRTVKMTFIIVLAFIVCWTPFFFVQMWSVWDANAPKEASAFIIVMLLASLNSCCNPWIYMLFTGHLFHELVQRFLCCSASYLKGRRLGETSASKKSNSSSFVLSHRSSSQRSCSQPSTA

[2] = target: T1, Oxytocin receptor; assay: Binding affinity to SNAP-tagged oxytocin receptor (unknown origin) expressed in HEK293 cells assessed as association constant after 5 to 120 mins by TR-FRET assay; conditions: read-out: kon (M-1-s-1)

| koff [1] [s⁻¹] | kon [2] [M⁻¹ s⁻¹] | Structure (SMILES) |
| --- | --- | --- |
| 0.000315 | 59500 | COc1ccc(-n2c(COCCOCCOCCOCCNC(=O)CCCCCNC(=O)c3ccc(-c4c5ccc(=O)cc-5oc5cc(O)ccc45)c(C(=O)O)c3)nnc2N2CC(Oc3ccc(F)cc3Cl)C2)cn1 |
| 0.000182 | 67200 | CCN1\C(=C/C=C/C=C/C2=[N+](CC)c3cc(S(=O)(=O)[O-])ccc3C2(C)C)C(C)(CCCC(=O)NCCOCCOCCOCCOCc2nnc(N3CC(Oc4ccc(F)cc4Cl)C3)n2-c2ccc(OC)nc2)c2cc(S(=O)(=O)O)ccc21 (centres undefined) |
